Assay: in vivo rat pharmacokinetic (PK) studies, plasma clearance
Settings: not given

Row | Structure (SMILES) | Rat PK Clp [mL/min/kg]
1 | O=C(NCc1cc(-c2ccc(C(F)(F)F)nc2)ncn1)[C@@H]1C[C@@H](F)CN1S(=O)(=O)c1ccc(F)cc1 [(2S,4R)-4-fluoro-1-(4-fluorophenyl)sulfonyl-N-[[6-[6-(trifluoromethyl)-3-pyridyl]pyrimidin-4-yl]methyl]pyrrolidine-2-carboxamide] | 15

Same assay, conditions: compared with related compounds

Row | Structure (SMILES) | stability in in vivo rat PK studies (clearance from the blood), in words
2 | O=C(NCc1cc(-c2ccc(C(F)(F)F)nc2)ncn1)[C@@H]1C[C@@H](F)CN1S(=O)(=O)c1ccc(F)cc1 [(2S,4R)-4-fluoro-1-(4-fluorophenyl)sulfonyl-N-[[6-[6-(trifluoromethyl)-3-pyridyl]pyrimidin-4-yl]methyl]pyrrolidine-2-carboxamide] | highest stability (slowest clearance)

Same assay, conditions: plasma, read-out: Rat PK Clp

Row | clearance [mL/min/kg] | Structure (SMILES)
3 | 13 | COc1nn(-c2ccc(C(F)(F)F)nc2)cc1CNC(=O)[C@@H]1C[C@@H](F)CN1S(=O)(=O)c1ccc(F)cc1 [(2S,4R)-4-fluoro-1-(4-fluorophenyl)sulfonyl-N-[[3-methoxy-1-[6-(trifluoromethyl)-3-pyridyl]pyrazol-4-yl]methyl]pyrrolidine-2-carboxamide]
4 | 9.1 | O=C(NCc1cc(-c2ccc(C(F)(F)F)nc2)nc(-c2ccc(C(F)(F)F)nc2)c1)[C@@H]1C[C@@H](F)CN1S(=O)(=O)c1ccc(F)cc1 [(2S,4R)-N-[[2,6-bis[6-(trifluoromethyl)-3-pyridyl]-4-pyridyl]methyl]-4-fluoro-1-(4-fluorophenyl)sulfonyl-pyrrolidine-2-carboxamide]
5 | 7.6 | N#C[C@@H]1C[C@@H](C(=O)NCc2cc(-c3ccc(C(F)(F)F)cc3)ncn2)N(S(=O)(=O)c2ccc(F)cc2)C1 [(2S,4R)-4-cyano-1-(4-fluorophenyl)sulfonyl-N-[[6-[4-(trifluoromethyl)phenyl]pyrimidin-4-yl]methyl]pyrrolidine-2-carboxamide]
6 | 30 | O=C(NCc1cc(-c2ccc(C(F)(F)F)nc2)ncn1)[C@@H]1CC(F)(F)CN1S(=O)(=O)c1ccc(F)cc1 [(2S)-4,4-difluoro-1-(4-fluorophenyl)sulfonyl-N-[[6-[6-(trifluoromethyl)-3-pyridyl]pyrimidin-4-yl]methyl]pyrrolidine-2-carboxamide]
7 | 5.9 | O=C(NCc1cc(-c2cnc(C(F)(F)F)nc2)c(F)cn1)[C@@H]1C[C@@H](F)CN1S(=O)(=O)c1ccc(F)cc1 [(2S,4R)-4-fluoro-1-(4-fluorophenyl)sulfonyl-N-[[5-fluoro-4-[2-(trifluoromethyl)pyrimidin-5-yl]-2-pyridyl]methyl]pyrrolidine-2-carboxamide]

Row | Structure (SMILES) | clearance [mL/min/kg]
8 | O=C(NCc1cc(-c2ccc(C(F)(F)F)nc2)ncn1)[C@@H]1[C@@H](F)CCN1S(=O)(=O)c1ccc(F)cc1 [(2R,3S)-3-fluoro-1-(4-fluorophenyl)sulfonyl-N-[[6-[6-(trifluoromethyl)-3-pyridyl]pyrimidin-4-yl]methyl]pyrrolidine-2-carboxamide] | 101
9 | C[C@@]1(C(=O)NCc2cc(-c3ccc(C(F)(F)F)nc3)ncn2)C[C@@H](F)CN1S(=O)(=O)c1ccc(F)cc1 [(2S,4R)-4-fluoro-1-(4-fluorophenyl)sulfonyl-2-methyl-N-[[6-[6-(trifluoromethyl)-3-pyridyl]pyrimidin-4-yl]methyl]pyrrolidine-2-carboxamide] | 15
